Tests used:
[1] = system: 2AP-riboSAM (RNA, riboswitch, 2-aminopurine at 59 (replaces U59)) GGGAAGAAAUAACAAUCAACGACGUAUCAUUGUGCCUCGCUUUCCGCGGGGCGAUAAGACCUGAAGAAAGGGAUGAUAUGACAUAAGAACAUCGG; test: steady-state 2AP fluorescence titration; details: 100 mM KCl, 2 mM MgCl2; 10 mM HEPES, pH 7.5, room temperature; 0.5 μM RNA; apparent
[2] = system: 2AP-mutant (riboSAM mutant, P0 helix disrupted) (RNA, riboswitch, 2-aminopurine at 59 (replaces U59)) GGGAAGAAAUAUGCCUCAACGACGUAUCAUUGUGCCUCGCUUUCCGCGGGGCGAUAAGACCUGAAGAAAGGGAUGAUAUGACAUAAGAACAUCGG; test: stopped-flow 2AP fluorescence; details: 100 mM KCl, 2 mM MgCl2; 10 mM HEPES, pH 7.5, room temperature; 0.5 μM RNA
[3] = system: 15N-25U32G-riboSAM hybridized with 19 nt-DNA (DNA:RNA, riboswitch) GGGAAGAAAUAACAAUCAACGACGUAUCAUUGUGCCUCGCUUUCCGCGGGGCGAUAAGUCCUGAAGAAAGGGAUGAUAUGACAUAAGAACAUCGG/CCGATGTTCTTATGTCATA; test: 1H15N-HSQC NMR; details: 25 mM K2HPO4, 50 mM KCl, 2 mM MgCl2; pH 6.5; 3' end blocked by 19-nt DNA
[4] = system: riboSAM (full-length SAM-VI riboswitch, 95 nt) (RNA, riboswitch) GGGAAGAAAUAACAAUCAACGACGUAUCAUUGUGCCUCGCUUUCCGCGGGGCGAUAAGUCCUGAAGAAAGGGAUGAUAUGACAUAAGAACAUCGG …; test: ITC; details: 100 mM KCl, 10 mM MgCl2; 40 mM HEPES, pH 7.5, room temperature; 45 μM RNA
[5] = system: 15N-16U24G-riboSAM hybridized with 21 nt-DNA (DNA:RNA, riboswitch) GGGAAGAAAUAACAAUCAACGACGUAUCAUUGUGCCUCGCUUUCCGCGGGGCGAUAAGUCCUGAAGAAAGGGAUGAUAUGACAUAAGAACAUCGG/CCGATGTTCTTATGTCATATC; test: 1H15N-HSQC NMR; details: 25 mM K2HPO4, 50 mM KCl, 2 mM MgCl2; pH 6.5; 0.5 mM SAM, 0.5 mM RNA; 3' end blocked by 21-nt DNA
[6] = system: 2AP-riboSAM (RNA, riboswitch, 2-aminopurine at 59 (replaces U59)) GGGAAGAAAUAACAAUCAACGACGUAUCAUUGUGCCUCGCUUUCCGCGGGGCGAUAAGACCUGAAGAAAGGGAUGAUAUGACAUAAGAACAUCGG; test: stopped-flow 2AP fluorescence; details: 100 mM KCl, 2 mM MgCl2; 10 mM HEPES, pH 7.5, room temperature; 0.5 μM RNA
[7] = system: 15N-16U24G-riboSAM (RNA, riboswitch) GGGAAGAAAUAACAAUCAACGACGUAUCAUUGUGCCUCGCUUUCCGCGGGGCGAUAAGUCCUGAAGAAAGGGAUGAUAUGACAUAAGAACAUCGG; test: 1H15N-HSQC NMR; details: 25 mM K2HPO4, 50 mM KCl, 2 mM MgCl2; pH 6.5, 25 or 37 °C; 0.5 mM RNA, 0.5 mM SAM
[8] = system: 2AP-mutant (riboSAM mutant, P0 helix disrupted) (RNA, riboswitch, 2-aminopurine at 59 (replaces U59)) GGGAAGAAAUAUGCCUCAACGACGUAUCAUUGUGCCUCGCUUUCCGCGGGGCGAUAAGACCUGAAGAAAGGGAUGAUAUGACAUAAGAACAUCGG; test: steady-state 2AP fluorescence titration; details: 100 mM KCl, 2 mM MgCl2; 10 mM HEPES, pH 7.5, room temperature; 0.5 μM RNA; apparent

- Kd [1]: 9.650 ± 0.065 µM
- Kon [2]: 4480 ± 51 M⁻¹ s⁻¹
- binding [3]: yes
- Kd [4]: 1.03 ± 0.23 µM
- binding [5]: no
- Kon [6]: 5690 ± 83 M⁻¹ s⁻¹
- binding [7]: yes
- Kd [8]: ~ 11.861 ± 0.341 μM
SMILES: C[S+](CC[C@H](N)C(=O)O)C[C@H]1O[C@@H](n2cnc3c(N)ncnc32)[C@H](O)[C@@H]1O (some centres unmarked)

Reference: article PMC10122661 (2023)
